Drawing on patent US9339541B2, “Thiophosphate nucleosides for the treatment of HCV” (priority 2013, dated 2016), this text covers EC50 for nine compounds.

The test system of the test is HCV genotype 1b replicon. Type of test: cell-based. Particulars: Huh-7-derived cell line (Zluc), HCV genotype 1b replicon with luciferase reporter, 72 hours of incubation.
In the case of `CCOC(=O)CCSP(=O)(N[C@@H](C)C(=O)OC(C)C)OC[C@H]1O[C@@H](n2ccc(=O)[nH]c2=O)[C@](C)(O)[C@@H]1O` (stereo partly drawn) [Compound 15b], the EC50 (as a rule, the concentration that produces a half-maximal response) is above 10 µM. In the case of `CCOC(=O)[C@H](C)NP(=O)(OC[C@H]1O[C@@H](n2cnc3c(=O)[nH]c(N)nc32)[C@](C)(O)[C@@H]1O)SCC` (stereo partly drawn) [Compound 13b], the EC50 fell in the range of 1 to 10 µM. Next, `CC(C)OC(=O)[C@H](C)NP(=O)(OC[C@H]1O[C@@H](n2ccc(=O)[nH]c2=O)[C@](C)(Cl)[C@@H]1O)SC1CCCC1` (single isomer, unassigned) [8b Diastereomer 1]: 1 to 10 µM. As for `CC(C)OC(=O)[C@@H](C)NP(=O)(OC[C@H]1O[C@@H](n2ccc(=O)[nH]c2=O)[C@](C)(Cl)[C@@H]1O)SC1CCCC1` (single isomer, unassigned) [8a Diastereomer 1], the figure is above 10 µM; as for `CC(C)OC(=O)[C@H](C)NP(=O)(OC[C@H]1O[C@@H](n2ccc(=O)[nH]c2=O)[C@](C)(O)[C@@H]1O)SCC1NC(=O)NC1=O` (single isomer, unassigned) [4b Diastereomer 1], above 10 µM; as for `CCOC(=O)[C@H](C)NP(=O)(OC[C@H]1O[C@@H](n2cnc3c(OCC)nc(N)nc32)[C@](C)(O)[C@@H]1O)SCC` (stereo partly drawn) [Compound 10b], at most 0.25 µM. Next, `COC(=O)CSP(=O)(N[C@@H](C)C(=O)OC(C)C)OC[C@H]1O[C@@H](n2ccc(=O)[nH]c2=O)[C@](C)(Cl)[C@@H]1O` (stereo partly drawn) [Compound 17b]: above 10 µM; `COC(=O)N[C@@H](CSP(=O)(N[C@@H](C)C(=O)OC(C)C)OC[C@H]1O[C@@H](n2cnc3c(OC)nc(N)nc32)[C@](C)(O)[C@@H]1O)C(=O)OC(C)C` (stereo partly drawn) [Compound 2by]: 1 to 10 µM. With `CCOc1nc(N)nc2c1ncn2[C@@H]1O[C@H](COP(=O)(N[C@@H](C)C(=O)OC(C)C)SCC2NC(=O)NC2=O)[C@@H](O)[C@@]1(C)F` (single isomer, unassigned) [3b Diastereomer 1], the EC50 was 1 to 10 µM.
